What was measured:
Cbl-b = Cbl-b (Homo sapiens (Human), UniProt Q13191); assay: Cbl-b LCK Ub TR-FRET assay (Cbl-b Lck HTRF); assay type: biochemical; conditions: for IC50: Cbl-b LCK Ub TR-FRET, Example 121; for (fold-selectivity) Cbl-b and C-Cbl Selectivity: ratio C-cbl Lck HTRF IC50 / Cbl-b Lck HTRF IC50
Summary of the method: (§1)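 Signal is read once the detection mix has stood 20 min at ambient temperature. Curves are anchored by DMSO as maximum and by omission of LCK as minimum.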

c-Cbl = c-Cbl (Homo sapiens (Human), UniProt P22681); assay: C-Cbl LCK Ub TR-FRET assay (C-cbl Lck HTRF); assay type: biochemical
c-Cbl, sequence (P22681 47-435): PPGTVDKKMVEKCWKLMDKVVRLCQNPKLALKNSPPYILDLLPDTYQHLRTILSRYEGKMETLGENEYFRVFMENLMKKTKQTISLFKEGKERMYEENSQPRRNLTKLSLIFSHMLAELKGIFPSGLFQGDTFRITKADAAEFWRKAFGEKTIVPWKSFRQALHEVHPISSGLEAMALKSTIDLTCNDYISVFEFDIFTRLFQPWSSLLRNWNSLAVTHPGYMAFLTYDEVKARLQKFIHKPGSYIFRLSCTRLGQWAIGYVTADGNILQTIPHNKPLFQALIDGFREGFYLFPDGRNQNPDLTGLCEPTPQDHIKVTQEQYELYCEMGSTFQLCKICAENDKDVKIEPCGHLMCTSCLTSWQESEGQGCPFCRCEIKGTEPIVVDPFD
Summary of the method: as §1

c-Cbl (residues 47-435) = c-Cbl (residues 47-435) (Homo sapiens (Human), UniProt P22681); assay: c-Cbl SPR assay; assay type: binding; conditions: 20° C.
c-Cbl (residues 47-435), sequence (P22681 47-435): as above
Summary of the method: (§2)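 SPR, multi-cycle, 6-pt 2-fold series, blanks flanking for double referencing; capture 1300-1500 RU; contact 60 s at 40 μl/min; dissoc. 120-1200 s (~4-5 half-lives). 1:1 fit. Chaser variant: single cycle, 5 conc., top 500 nM, 120 s contact, 450 s dissociation.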

[1] = molecular target: Human Cbl-b (residues 40-426) (Homo sapiens (Human), UniProt Q13191); assay: Cbl-b SPR assay; assay type: binding; conditions: for Fold of selectivity: C-cbl SPR Kd vs Cbl-b SPR Kd; for Kd: SPR, 20° C.
Human Cbl-b (residues 40-426), sequence (Q13191 40-426): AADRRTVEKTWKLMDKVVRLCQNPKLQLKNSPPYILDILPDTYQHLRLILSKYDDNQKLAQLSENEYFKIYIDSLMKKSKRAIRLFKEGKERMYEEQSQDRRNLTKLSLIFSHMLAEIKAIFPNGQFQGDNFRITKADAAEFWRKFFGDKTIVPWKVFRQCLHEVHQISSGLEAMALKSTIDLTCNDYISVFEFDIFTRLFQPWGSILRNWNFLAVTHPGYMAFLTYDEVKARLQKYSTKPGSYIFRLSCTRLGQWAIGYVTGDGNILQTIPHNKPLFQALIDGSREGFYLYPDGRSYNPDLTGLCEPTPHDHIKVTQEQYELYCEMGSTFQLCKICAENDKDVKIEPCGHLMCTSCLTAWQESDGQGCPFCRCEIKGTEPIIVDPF
Summary of the method: as §2

Cbl-b, sequence (Q13191 40-426): as above

| IC50 (Cbl-b) [nM] | (fold-selectivity) Cbl-b and C-Cbl Selectivity (Cbl-b) [x] | IC50 (c-Cbl) [nM] | Kd (c-Cbl (residues 47-435)) [nM] | Fold of selectivity [1] [×] | Kd [1] [nM] | Compound |
| --- | --- | --- | --- | --- | --- | --- |
| 7.3 | 4.1 | 30 | 64 | 12 | 4.7 | CO[C@H]1C[C@](c2cccc(N3Cc4c(cc(CNC5CC(C#N)C5)cc4C(F)(F)F)C3=O)c2)(c2nncn2C)C1 (stereo partly drawn) [Compound 505, 3-(((2-(3-((1r,3r)-3-methoxy-1-(4-methyl-4H-1,2,4-triazol-3-yl)cyclobutyl)phenyl)-3-oxo-7-(trifluoromethyl)isoindolin-5-yl)methyl)amino)cyclobutanecarbonitrile] |
| 9.3 | 4.5 | 42 | 52 | 15 | 3.5 | CO[C@H]1C[C@](c2cccc(N3Cc4c(cc(CNCC5(CF)CCC5)cc4C(F)(F)F)C3=O)c2)(c2nncn2C)C1 [Compound 507, 6-((((1-(fluoromethyl)cyclobutyl)methyl)amino)meth-yl)-2-(3-((1r,3r)-3-methoxy-1-(4-methyl-4H-1,2,4-triazol-3-yl)cyclobutyl)phenyl)-4-(trifluoromethyl)isoindolin-1-one] |
| 6.2 | 3.8 | 24 | 24 | 14 | 1.7 | CO[C@H]1C[C@](c2cccc(N3Cc4c(cc(CN[C@@]56CCC[C@@H]5C6)cc4C(F)(F)F)C3=O)c2)(c2nncn2C)C1 [Compound 508, 6-(((1R,5R)-bicyclo[3.1.0]hexan-1-ylamino)methyl)-2-(3-((1r,3R)-3-methoxy-1-(4-methyl-4H-1,2,4-triazol-3-yl)cyclobutyl)phenyl)-4-(trifluoromethyl)isoindolin-1-one] |
| 16 | 4.7 | 75 | 75 | 13 | 6 | CO[C@H]1C[C@](c2cccc(N3Cc4c(cc(CNCC5(CO)CC6CC6C5)cc4C(F)(F)F)C3=O)c2)(c2nncn2C)C1 (stereo partly drawn) [Compound 509, 6-((((3-(hydroxymethyl)bicyclo[3.1.0]hexan-3-yl)methyl)amino)methyl)-2-(3-((1r,3r)-3-methoxy-1-(4-methyl-4H-1,2,4-triazol-3-yl)cyclobutyl)phenyl)-4-(trifluoromethyl)isoindolin-1-one] |
| 12 | 4.2 | 51 | 60 | 18 | 3.4 | CO[C@H]1C[C@](c2cccc(N3Cc4c(cc(CNCC5CC56CC6(F)F)cc4C(F)(F)F)C3=O)c2)(c2nncn2C)C1 (stereo partly drawn) [Compound 510] |
| 12 | 5.0 | 61 | 65 | 13 | 5 | CCCNCc1cc2c(c(C(F)(F)F)c1)CN(c1cccc([C@]3(c4nncn4C)C[C@H](OC)C3)c1)C2=O [Compound 511, 2-(3-((1r,3r)-3-methoxy-1-(4-methyl-4H-1,2,4-triazol-3-yl)cyclobutyl)phenyl)-6-((propylamino)methyl)-4-(trifluoromethyl)isoindolin-1-one] |

Reference: patent US12187709B2 (Genentech, Inc., priority 2021, dated 2025)
